Measured values published in article PMC6332545, “Biochemical properties and subcellular localization of six members of the HXK family in maize and its metabolic contribution to embryo germination” (BMC Plant Biology, 2019).
One block for each compound: values may come before it.

Tests used:
Format in all cases: biochemical
ZmHXK4Δ30 [1] = target: T1, ZmHXK4Δ30 (Zea mays, UniProt K7VX77); test: coupled G6PDH/NADP+ assay, A340; conditions: 2 mM MgCl2, pH 8.0
T1 construct: gene LOC542510; N-terminal mitochondrial anchor deleted (87 nucleotides after the start codon, first 30 residues); E. coli BL21-CodonPlus(DE3)-RIL
From the text: coupled G6PDH/NADP+ assay, A340 on ZmHXK4Δ30

ZmHXK5Δ30 [2] = target: T2, ZmHXK5Δ30 (Zea mays, UniProt A0A1D6MAK9); test: coupled G6PDH/NADP+ assay, A340; conditions: 2 mM MgCl2, pH 8.0
T2 construct: N-terminal mitochondrial anchor deleted (87 nucleotides after the start codon, first 30 residues); E. coli BL21-CodonPlus(DE3)-RIL
From the text: coupled G6PDH/NADP+ assay, A340 on ZmHXK5Δ30

ZmHXK6Δ30 [3] = target: T3, ZmHXK6Δ30 (Zea mays, UniProt A0A1D6NCX2); test: coupled G6PDH/NADP+ assay, A340; conditions: 2 mM MgCl2, pH 8.0
T3 construct: gene LOC103651223; N-terminal mitochondrial anchor deleted (87 nucleotides after the start codon, first 30 residues); E. coli BL21-CodonPlus(DE3)-RIL
From the text: coupled G6PDH/NADP+ assay, A340 on ZmHXK6Δ30

ZmHXK8 = target: T4, ZmHXK8 (Zea mays, UniProt B4FB85); test: coupled G6PDH/NADP+ assay, A340; conditions: 50 mM Glc, 2 mM ATP, 2 mM MgCl2, pH 8.0; product inhibition; PEP/pyruvate kinase listed in the reaction medium; read-out: ADP
T4 construct: full length, soluble; E. coli BL21-CodonPlus(DE3)-RIL
From the text: coupled G6PDH/NADP+ assay, A340 on ZmHXK8

ZmHXK7 = target: T5, ZmHXK7 (Zea mays, UniProt C0HF79); test: coupled G6PDH/NADP+ assay, A340; conditions: 5 mM Glc, 2 mM ATP, 2 mM MgCl2, pH 8.0; product inhibition; PEP/pyruvate kinase listed in the reaction medium; read-out: ADP
T5 construct: full length, soluble; E. coli BL21-CodonPlus(DE3)-RIL
From the text: coupled G6PDH/NADP+ assay, A340 on ZmHXK7

ZmHXK6Δ30 [4] = target: T3, ZmHXK6Δ30; test: coupled pyruvate kinase/lactate dehydrogenase NADH assay, A340; conditions: read-out: Substrate / Mannose; 2 mM ATP, 2 mM MgCl2, pH 8.0
From the text: coupled pyruvate kinase/lactate dehydrogenase NADH assay, A340 on ZmHXK6Δ30

ZmHXK5Δ30 [5] = target: T2, ZmHXK5Δ30; test: as above; conditions: read-out: Substrate / Mannose; 2 mM ATP, 2 mM MgCl2, pH 8.0
From the text: coupled pyruvate kinase/lactate dehydrogenase NADH assay, A340 on ZmHXK5Δ30

ZmHXK4Δ30 [6] = target: T1, ZmHXK4Δ30; test: as above; conditions: read-out: Substrate / Mannose; 2 mM ATP, 2 mM MgCl2, pH 8.0
From the text: coupled pyruvate kinase/lactate dehydrogenase NADH assay, A340 on ZmHXK4Δ30

[7] = read-out: Substrate / Glucose, 2 mM ATP
[8] = 5 mM Glc, 2 mM ATP, product inhibition, PEP/pyruvate kinase listed in the reaction medium, read-out: ADP
[9] = read-out: Substrate / ATP, 5 mM Glc

Km (ZmHXK4Δ30 [1]; [7]): 196 ± 32 µM
Km (ZmHXK5Δ30 [2]; [7]): 137 ± 20 µM
Km (ZmHXK6Δ30 [3]; [7]): 65.9 ± 15.2 µM
Structure (SMILES): OC[C@H]1OC(O)[C@H](O)[C@@H](O)[C@@H]1O (some centres unmarked) [glucose]

IC50 (ZmHXK4Δ30 [1]; [8]): 710 ± 150 µM
IC50 (ZmHXK5Δ30 [2]; [8]): 690 ± 150 µM
IC50 (ZmHXK8): 3120 ± 1140 µM
IC50 (ZmHXK6Δ30 [3]; [8]): 720 ± 140 µM
IC50 (ZmHXK7): 6470 ± 1140 µM
Structure (SMILES): Nc1ncnc2c1ncn2[C@@H]1O[C@H](COP(=O)(O)OP(=O)(O)O)[C@@H](O)[C@H]1O [ADP]

Km (ZmHXK6Δ30 [4]): 48.9 ± 1.06 µM
Km (ZmHXK5Δ30 [5]): 120 ± 33.3 µM
Km (ZmHXK4Δ30 [6]): 139 ± 22.4 µM
Structure (SMILES): OC[C@H]1OC(O)[C@@H](O)[C@@H](O)[C@@H]1O (some centres unmarked) [mannose]

Km (ZmHXK4Δ30 [1]; [9]): 135 ± 25.7 µM
Km (ZmHXK5Δ30 [2]; [9]): 136 ± 11.5 µM
Km (ZmHXK6Δ30 [3]; [9]): 199 ± 12.8 µM
Structure (SMILES): Nc1ncnc2c1ncn2[C@@H]1O[C@H](COP(=O)(O)OP(=O)(O)OP(=O)(O)O)[C@@H](O)[C@H]1O [ATP]
